Measurements taken from patent US10226451B2, “Substituted bicyclic compounds as bromodomain inhibitors” (ZENITH EPIGENETICS LTD, priority 2013, dated 2019).

How the values were obtained:
hIL-6 mRNA in U937 cells = test: Inhibition of hIL-6 mRNA transcription in LPS-stimulated U937 cells; format: cell-based; conditions: Homo sapiens, U-937, PMA-differentiated U937 cells, LPS 1 ug/mL, 3 h, read-out: IL-6 activity
Description: In this example, hIL-6 mRNA in tissue culture cells were quantitated to measure the transcriptional inhibition of hIL-6 when treated with a compound of the present disclosure.
Human leukemic monocyte lymphoma U937 cells (CRL-1593.2) were plated at a density of 3.2×10^4 cells per well in a 96-well plate in 100 μL RPMI-1640 containing 10% FBS and penicillin/streptomycin, and differentiated into macrophages for 3 days in 60 ng/mL PMA ([…]) at 37° C. in 5% CO2 prior to the addition of compound. The cells were pretreated for 1 h with increasing concentrations of test compound in 0.1% DMSO prior to stimulation with 1 ug/mL lipopolysaccharide from Escherichia coli. Triplicate wells were used for each concentration. The cells were incubated at 37° C., 5% CO2 for 3 h before the cells were harvested. At time of harvest, media was removed and cells were rinsed in 200 μL PBS. Cells were harvested using the mRNA Catcher PLUS kit according to manufacturer's instructions. The eluted mRNA was then used in a one-step quantitative real-time PCR reaction using components of the RNA UltraSense™ One-Step Kit (Life Technologies) together with Applied Biosystems TaqMan® primer-probes for hIL-6 and Cyclophilin. Real-time PCR plates were run on a ViiA™7 real time PCR machine (Applied Biosystems), data was analyzed, normalizing the Ct values for hIL-6 to an internal control, prior to determining the fold expression of each sample, relative to the control.

[1] = target: T1, Brd4 bromodomain 1 (BRD4(1)) (Homo sapiens, UniProt O60885); test: Inhibition of tetra-acetylated histone H4 binding to Brd4 bromodomain 1 (HTRF/FRET); conditions: tetra-acetylated histone H4 peptide, His-tagged bromodomain 200 nM, 2 h
T1 construct: made in house; host or cells: E. coli BL21(DE3)
Description: Proteins were cloned and overexpressed with a N-terminal 6×His tag, then purified by nickel affinity followed by size exclusion chromatography. Briefly, E. coli BL21(DE3) cells were transformed with a recombinant expression vector encoding N-terminally Nickel affinity tagged bromodomains from Brd2, Brd3, Brd4. Cell cultures were incubated at 37° C. with shaking to the appropriate density and induced overnight with IPTG. The supernatant of lysed cells was loaded onto Ni-IDA column for purification. Eluted protein was pooled, concentrated and further purified by size exclusion chromatography. Fractions representing monomeric protein were pooled, concentrated, aliquoted, and frozen at −80° C. for use in subsequent experiments.
Binding of tetra-acetylated histone H4 and BET bromodomains was confirmed by a Homogenous Time Resolved Fluorescence Resonance Energy Transfer (HTRF®) method. N-terminally His-tagged bromodomains (200 nM) and biotinylated tetra-acetylated histone H4 peptide (25-50 nM, Millipore) were incubated in the presence of Europium Cryptate-labeled streptavidin (Cisbio Cat. #610SAKLB) and XL665-labeled monoclonal anti-His antibody (Cisbio Cat. #61HISXLB) in a white 96 well microtiter plate (Greiner). For inhibition assays, serially diluted test compound was added to these reactions in a 0.2% final concentration of DMSO. Duplicate wells were used for each concentration tested. Final buffer concentrations were 30 mM HEPES pH 7.4, 30 mM NaCl, 0.3 mM CHAPS, 20 mM phosphate pH 7.0, 320 mM KF, 0.08% BSA. After a 2 h incubation at room temperature, fluorescence was measured at 665 and 620 nm with a SynergyH4 plate reader (Biotek). The binding inhibitory activity was shown by a decrease in 665 nm relative to 620 nm fluorescence. IC50 values were determined from a dose response curve.

[2] = tested on: c-myc in Human AML MV4-11 cells; test: Inhibition of c-MYC expression (mRNA, real-time PCR) in MV4-11 cells; format: cell-based; conditions: 3 h, mRNA by real-time PCR
Description: MV4-11 cells (CRL-9591) were plated at a density of 2.5×10^4 cells per well in 96 well U-bottom plates and treated with increasing concentrations of test compound or DMSO (0.1%) in IMDM media containing 10% FBS and penicillin/streptomycin, and incubated for 3 h at 37° C. Triplicate wells were used for each concentration. Cells were pelleted by centrifugation and harvested using the mRNA Catcher PLUS kit according to manufacturer's instructions. The eluted mRNA isolated was then used in a one-step quantitative real-time PCR reaction, using components of the RNA UltraSense™ One-Step Kit (Life Technologies) together with Applied Biosystems TaqMan® primer-probes for cMYC and Cyclophilin. Real-time PCR plates were run on a ViiA™7 real time PCR machine (Applied Biosystems), data was analyzed, normalizing the Ct values for hMYC to an internal control, prior to determining the fold expression of each sample, relative to the control.

[3] = tested on: hIL-17 mRNA in human peripheral blood mononuclear cells; test: Inhibition of hIL-17 mRNA transcription in OKT3-stimulated PBMC; format: cell-based; conditions: OKT3 antibody, 6 h, read-out: IL-17 activity
Description: In this example, hIL-17 mRNA in human peripheral blood mononuclear cells were quantitated to measure the transcriptional inhibition of hIL-17 when treated with a compound of the present disclosure.
Human peripheral blood mononuclear cells were plated (2.0×10^5 cells per well) in a 96-well plate in 45 μL OpTimizer T Cell expansion media (Life Technologies) containing 20 ng/ml IL-2 and penicillin/streptomycin. The cells were treated with increasing concentrations of the test compound or DMSO (0.1%), and incubated at 37° C., 5% CO2 for 1 h before addition of 10× stock OKT3 antibody at 10 ug/ml in media. Triplicate wells were used for each concentration. Cells were incubated at 37° C., 5% CO2 for 6 h before the cells were harvested. At time of harvest, cells were pelleted by centrifugation at 800 rpm for 5 min. Cells were harvested using the mRNA Catcher PLUS kit according to manufacturer's instructions. The eluted mRNA was then used in a one-step quantitative real-time PCR reaction, using components of the RNA UltraSense™ One-Step Kit (Life Technologies) together with Applied Biosystems TaqMan® primer-probes for hIL-17 and Cyclophilin. Real-time PCR plates were run on a ViiA™7 real time PCR machine (Applied Biosystems), data was analyzed, normalizing the Ct values for hIL-17 to an internal control, prior to determining the fold induction of each unknown sample, relative to the control.

Human AML MV-4-11 cells = test: Inhibition of cell proliferation in MV4-11 cells (CellTiter Aqueous One); format: cell-based; conditions: 72 h
Description: In this example, cell titer in MV4-11 cells were quantitated to measure the inhibition of proliferation when treated with a compound of the present disclosure.
MV4-11 cells (CRL-9591) were plated at a density of 5×10^4 cells per well in 96 well flat bottom plates and treated with increasing concentrations of test compound or DMSO (0.1%) in IMDM media containing 10% FBS and penicillin/streptomycin. Triplicate wells were used for each concentration and a well containing only media was used as a control. Plates were incubated at 37° C., 5% CO2 for 72 h before adding 20 μL of the CellTiter Aqueous One Solution (Promega) to each well and incubated at 37° C., 5% CO2 for an additional 3-4 h. The absorbance was read at 490 nm in a spectrophotometer and the percentage of cell titer relative to DMSO-treated cells was calculated after correcting for background by subtracting the blank well's signal. IC50 values were calculated using the Graph Pad Prism software.

Row | SMILES | IC50 (hIL-6 mRNA in U937 cells) [nM] | IC50 [1] [nM] | IC50 [2] [nM] | IC50 [3] [nM] | IC50 (Human AML MV-4-11 cells) [nM]
1 | Cc1noc(C)c1-c1cc(-c2c(C)noc2C)c2c(c1)[nH]c(=O)n2C [Example Compound 2, 5,7-bis(3,5-dimethylisoxazol-4-yl)-1-methyl-1H-benzo[d]imidazol-2(3H)-one] | ≤ 300 | ≤ 300 | ≤ 300 | ≤ 300 | 300 to 3000
2 | Cc1noc(C)c1-c1cc(-c2ccccc2C(F)(F)F)c2c(c1)[nH]c(=O)n2C [Example Compound 5, 5-(3,5-dimethylisoxazol-4-yl)-1-methyl-7-(2-(trifluoromethyl)phenyl)-1H-benzo[d]imidazol-2(3H)-one] | ≤ 300 | ≤ 300 | ≤ 300 | 300 to 3000 | ≤ 300
3 | Cc1nn(C)c(C)c1Nc1cc(-c2c(C)noc2C)cc2[nH]c(=O)n(C)c12 [Example Compound 26, 5-(3,5-dimethylisoxazol-4-yl)-1-methyl-7-((1,3,5-trimethyl-1H-pyrazol-4-yl)amino)-1H-benzo[d]imidazol-2(3H)-one] | 300 to 3000 | ≤ 300 | ≤ 300 |  | 300 to 3000
4 | Cc1ncccc1Nc1cc(-c2c(C)noc2C)cc2[nH]c(=O)n(C)c12 [Example Compound 27, 5-(3,5-dimethylisoxazol-4-yl)-1-methyl-7-((2-methylpyridin-3-yl)amino)-1H-benzo[d]imidazol-2(3H)-one] | ≤ 300 | ≤ 300 | ≤ 300 |  | 300 to 3000
5 | Cc1ccc(C(N)=O)cc1-c1cc(-c2c(C)noc2C)cc2[nH]c(=O)n(C)c12 [Example Compound 29, 3-(6-(3,5-dimethylisoxazol-4-yl)-3-methyl-2-oxo-2,3-dihydro-1H-benzo[d]imidazol-4-yl)-4-methylbenzamide] | 300 to 3000 | ≤ 300 | ≤ 300 |  | 300 to 3000
6 | Cc1ncccc1Oc1cc(-c2c(C)noc2C)cc2[nH]c(=O)n(C)c12 [Example Compound 31, 5-(3,5-dimethylisoxazol-4-yl)-1-methyl-7-((2-methylpyridin-3-yl)oxy)-1H-benzo[d]imidazol-2(3H)-one] | ≤ 300 | ≤ 300 | 300 to 3000 |  | 300 to 3000
7 | Cc1n[nH]c(C)c1-c1cc(-c2c(C)noc2CO)cc2[nH]c(=O)n(C)c12 [Example Compound 32, 7-(3,5-dimethyl-1H-pyrazol-4-yl)-5-(5-(hydroxymethyl)-3-methylisoxazol-4-yl)-1-methyl-1H-benzo[d]imidazol-2(3H)-one] | ≤ 300 | ≤ 300 | ≤ 300 |  | 300 to 3000
8 | Cc1noc(C)c1Nc1cc(-c2c(C)noc2C)cc2[nH]c(=O)n(C)c12 [Example Compound 33, 5-(3,5-dimethylisoxazol-4-yl)-7-((3,5-dimethylisoxazol-4-yl)amino)-1-methyl-1H-benzo[d]imidazol-2(3H)-one] | 300 to 3000 | ≤ 300 | ≤ 300 |  | 300 to 3000
9 | Cc1noc(C)c1-c1cc(-c2cccc3ccccc23)c2c(c1)[nH]c(=O)n2C [Example Compound 34, 5-(3,5-dimethylisoxazol-4-yl)-1-methyl-7-(naphthalen-1-yl)-1H-benzo[d]imidazol-2(3H)-one] | ≤ 300 | ≤ 300 | ≤ 300 |  | 300 to 3000
10 | Cc1cnccc1-c1cc(-c2c(C)noc2C)cc2[nH]c(=O)n(C)c12 [Example Compound 38, 5-(3,5-dimethylisoxazol-4-yl)-1-methyl-7-(3-methylpyridin-4-yl)-1H-benzo[d]imidazol-2(3H)-one] | 300 to 3000 | ≤ 300 | 300 to 3000 |  | 300 to 3000
11 | Cc1cncc(C)c1-c1cc(-c2c(C)noc2C)cc2[nH]c(=O)n(C)c12 [Example Compound 39, 5-(3,5-dimethylisoxazol-4-yl)-7-(3,5-dimethylpyridin-4-yl)-1-methyl-1H-benzo[d]imidazol-2(3H)-one] | ≤ 300 | ≤ 300 | ≤ 300 |  | 300 to 3000
12 | Cc1ccccc1-c1cc(-c2c(C)noc2C)cc2[nH]c(=O)n(C)c12 [Example Compound 40, 5-(3,5-dimethylisoxazol-4-yl)-1-methyl-7-(o-tolyl)-1H-benzo[d]imidazol-2(3H)-one] | 300 to 3000 | ≤ 300 | ≤ 300 |  | 300 to 3000
13 | Cc1nc(C)c(-c2cc(-c3c(C)noc3C)cc3[nH]c(=O)n(C)c23)s1 [Example Compound 44, 5-(3,5-dimethylisoxazol-4-yl)-7-(2,4-dimethylthiazol-5-yl)-1-methyl-1H-benzo[d]imidazol-2(3H)-one] | 300 to 3000 | 300 to 3000 | 300 to 3000 |  | 3000 to 30000
14 | COc1nc(C)ccc1-c1cc(-c2c(C)noc2C)cc2[nH]c(=O)n(C)c12 [Example Compound 45, 5-(3,5-dimethylisoxazol-4-yl)-7-(2-methoxy-6-methylpyridin-3-yl)-1-methyl-1H-benzo[d]imidazol-2(3H)-one] | 300 to 3000 | 300 to 3000 | ≤ 300 |  | 300 to 3000
